PMC8348780, “Preparation and Evaluation of Novel Folate Isonitrile ^99mTc Complexes as Potential Tumor Imaging Agents to Target Folate Receptors” (Molecules, 2021)
Each block holds one compound with its values, some of them ahead of it.

How the values were obtained:
[1] = Partition coefficient, 1-octanol / phosphate buffer pH 7.4; assay type: physicochemical; conditions: 1-octanol / phosphate buffer 0.025 M
Description: The partition coefficient was measured as follows: 1.9 mL of phosphate buffer solution (0.025 M, pH 7.4), 2.0 mL of 1-octanol, and 0.1 mL of ^99mTc-CN5FA or ^99mTc-CNPFA solution were added to the centrifuge tube, and the sample was swirled for 5 min and centrifuged for 5 min (3000 r/min). Then, the radioactivity counts of the two phases were measured by taking 0.1 mL from the organic phase and the water phase. The partition coefficient P was calculated. The final partition coefficient was expressed as log P ± SD.

KB tumor-bearing mice [2] = assay: SPECT/CT imaging study in KB tumor-bearing mice; assay type: in vivo, BALB/c nude mice; conditions: 2 h post injection, about 18.5 MBq i.v.
Description: The SPECT/CT imaging experiments were also divided into a normal group and an inhibition group (n = 3). The labeled solution (about 18.5 MBq) was injected into the tail vein of nude mice bearing KB tumor. The inhibition group was injected with 100 µg FA (about 4 × 10^4 µg/kg) 30 min in advance. After 2 h, the SPECT/CT scan was performed in anesthetized mice by using 1.5% isoflurane. The SPECT acquisition (peak value 140 keV, 20% width, 90° rotation, MMP 919 Collimator) was performed after 4 min of CT scanning (512 views, 2 × 2 binding, 75 kV, exposure time 230 ms). SPECT/CT images were made using HiSPECT software and vivoquant 2.5 software.

[3] = Stability in mouse serum at 37 °C (RCP by radio-HPLC); assay type: in vitro ADME; conditions: 4 h
Description: (§1) The complexes were determined by ITLC/SG of the ACD system and radio-HPLC. The ITLC/SG trip was cut into 10 equal parts, and radioactive counting of ITLC strips was determined by a γ-counter. ITLC results of both complexes were as follows: in ACD solution, [^99mTc]Tc-CN5FA and [^99mTc]Tc-CNPFA stayed at the origin (Rf = 0–0.1), while ^99mTcO4^− (Rf = 0.9–1.0) and ^99mTcO2·nH2O (Rf = 0.8–1.0) were moved to the front. Radio-HPLC was analyzed by a mobile phase system consisting of 0.1% TFA water (solvent A) and 0.1% TFA acetonitrile (solvent B) with a gradient of 0−2 min 10% B, 2−5 min 10%−90% B, 10−20 min 90% B, and 20−25 min 90%−10% B (system B) at a flow rate of 1 mL/min. All experiments were performed in triplicate.
(§2) The stability of [^99mTc]Tc-CN5FA and [^99mTc]Tc-CNPFA in vitro was evaluated by measuring the RCP of the complexes. Stability in saline was achieved by holding the solution at room temperature for 4 h. Stability in the serum was achieved by mixing 100 μL of [^99mTc]Tc-CN5FA or [^99mTc]Tc-CNPFA with 200 μL of mouse serum at 37 °C for 4 h. After precipitation using acetonitrile, centrifugation, and concentration, the solutions were analyzed by radio-HPLC.

[4] = molecular target: T1, folate receptor (KB cells) (Homo sapiens, UniProt P15328); assay: In vitro competitive binding with KB cells; conditions: 37 °C, 2 h, competitive binding with inhibitor
T1 construct: endogenous in cells; host or cells: KB cells
T1 sequence (P15328 25-257): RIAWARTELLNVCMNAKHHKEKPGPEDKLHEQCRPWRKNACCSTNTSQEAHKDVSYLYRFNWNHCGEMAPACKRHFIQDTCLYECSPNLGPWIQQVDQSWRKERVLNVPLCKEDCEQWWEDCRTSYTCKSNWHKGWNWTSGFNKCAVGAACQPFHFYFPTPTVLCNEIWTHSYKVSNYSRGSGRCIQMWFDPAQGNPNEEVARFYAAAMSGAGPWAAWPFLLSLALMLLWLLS
Description: KB cells were cultured with FFRPMI 1640 medium 24 h in advance on a 48-well plate with 5 × 10^4 cells per well. The labeling solution was diluted to 5 μCi/mL with the same medium after growing, and the inhibitor was prepared at different concentrations. The 48-well plates were divided into eight groups, and each group was incubated with 100 μL of inhibitor solution, 100 μL of diluted labeled solution (5 μCi/mL), and 200 μL of medium at 37 °C for 2 h.
After removing the cell plate from the incubator, the medium was removed, and the cells were washed with PBS (0.1 M, pH 7.4). The washed cells were lysed with NaOH (1 M) for 5 min. Pyrolysates were collected in the hoses, and the radioactivity count of each hose was measured by a γ-counter. The data were analyzed with GraphPad Prism 5.0 and nonlinearly fit to the log IC50 ± SD value.

KB tumor-bearing mice [5] = assay: Biodistribution study in KB tumor-bearing mice; assay type: in vivo, BALB/c nude mice; conditions: for Tumor uptake: KB tumor
Description: The biodistribution experiments were divided into normal groups and inhibition groups (n = 3), in which the inhibition group was injected with inhibitor (about 4 × 10^4 µg/kg) 30 min in advance. The KB tumor-bearing mice were decapitated 30 and 120 min after the tail vein injection of 0.1 mL labeled solution (about 7.4 × 10^4 Bq). The heart, liver, lung, kidney, spleen, stomach, bone, muscle, intestine, tumor, blood, and other related tissues and organs were wiped clean and weighed, and the radioactivity count was measured. Each tissue per gram of injection dose (%ID/g) was calculated.

[6] = Stability in saline / radiolabeling solution at room temperature (RCP by radio-HPLC); assay type: physicochemical; conditions: 4 h
Description: as §1, §2

[7] = Solubility of the ligand in the labeling solution; assay type: physicochemical; conditions: labeling solution under weak acid
[8] = 2 h p.i., block: FA about 4 × 10^4 µg/kg 30 min in advance

log P [1]: −2.28 ± 0.02 | RCP after incubation [3]: more than 95% | IC50 [4]: 3.8 ± 0.07 nM | T/B (tumor/blood ratio) (KB tumor-bearing mice [5]; 0.5 h p.i.): 1.02 | T/M (tumor/muscle ratio) (KB tumor-bearing mice [5]; 0.5 h p.i.): 2.82 | Blood uptake (KB tumor-bearing mice [5]; 0.5 h p.i., i.v., n = 3): 4.08 ± 0.54 %ID/g | Bone uptake (KB tumor-bearing mice [5]; 0.5 h p.i., i.v., n = 3): 1.77 ± 0.06 %ID/g | Heart uptake (KB tumor-bearing mice [5]; 0.5 h p.i., i.v., n = 3): 1.92 ± 0.06 %ID/g | Intestines uptake (KB tumor-bearing mice [5]; 0.5 h p.i., i.v., n = 3): 4.98 ± 1.57 %ID/g | Kidney uptake (KB tumor-bearing mice [5]; 0.5 h p.i., i.v., n = 3): 81.30 ± 4.69 %ID/g | Liver uptake (KB tumor-bearing mice [5]; 0.5 h p.i., i.v., n = 3): 15.84 ± 1.19 %ID/g | Lung uptake (KB tumor-bearing mice [5]; 0.5 h p.i., i.v., n = 3): 4.01 ± 0.30 %ID/g | Muscle uptake (KB tumor-bearing mice [5]; 0.5 h p.i., i.v., n = 3): 1.48 ± 0.07 %ID/g | Spleen uptake (KB tumor-bearing mice [5]; 0.5 h p.i., i.v., n = 3): 3.65 ± 0.72 %ID/g | Stomach uptake (KB tumor-bearing mice [5]; 0.5 h p.i., i.v., n = 3): 6.67 ± 0.73 %ID/g | Thyroid uptake (KB tumor-bearing mice [5]; 0.5 h p.i., i.v., n = 3): 0.08 ± 0.02 %ID | T/B (tumor/blood ratio) (KB tumor-bearing mice [5]; 2 h p.i.): 1.73 | T/M (tumor/muscle ratio) (KB tumor-bearing mice [5]; 2 h p.i.): 3.01 | Blood uptake (KB tumor-bearing mice [5]; [8]): 1.97 ± 0.34 %ID/g | Bone uptake (KB tumor-bearing mice [5]; [8]): 1.02 ± 0.10 %ID/g | Heart uptake (KB tumor-bearing mice [5]; [8]): 0.81 ± 0.12 %ID/g | Intestines uptake (KB tumor-bearing mice [5]; [8]): 1.70 ± 0.22 %ID/g | Kidney uptake (KB tumor-bearing mice [5]; [8]): 37.60 ± 2.46 %ID/g | Liver uptake (KB tumor-bearing mice [5]; [8]): 10.88 ± 1.03 %ID/g | Lung uptake (KB tumor-bearing mice [5]; [8]): 2.11 ± 0.28 %ID/g | Muscle uptake (KB tumor-bearing mice [5]; [8]): 0.51 ± 0.09 %ID/g | Spleen uptake (KB tumor-bearing mice [5]; [8]): 3.30 ± 0.66 %ID/g | Stomach uptake (KB tumor-bearing mice [5]; [8]): 2.18 ± 0.22 %ID/g | Thyroid uptake (KB tumor-bearing mice [5]; [8]): 0.05 ± 0.01 %ID | Blood uptake (KB tumor-bearing mice [5]; 2 h p.i., i.v., n = 3): 1.46 ± 0.03 %ID/g | Bone uptake (KB tumor-bearing mice [5]; 2 h p.i., i.v., n = 3): 0.79 ± 0.11 %ID/g | Heart uptake (KB tumor-bearing mice [5]; 2 h p.i., i.v., n = 3): 1.30 ± 0.09 %ID/g | Intestines uptake (KB tumor-bearing mice [5]; 2 h p.i., i.v., n = 3): 1.60 ± 0.24 %ID/g | Kidney uptake (KB tumor-bearing mice [5]; 2 h p.i., i.v., n = 3): 80.25 ± 1.23 %ID/g | Liver uptake (KB tumor-bearing mice [5]; 2 h p.i., i.v., n = 3): 10.39 ± 0.23 %ID/g | Lung uptake (KB tumor-bearing mice [5]; 2 h p.i., i.v., n = 3): 2.04 ± 0.06 %ID/g | Muscle uptake (KB tumor-bearing mice [5]; 2 h p.i., i.v., n = 3): 0.84 ± 0.04 %ID/g | Spleen uptake (KB tumor-bearing mice [5]; 2 h p.i., i.v., n = 3): 2.85 ± 0.26 %ID/g | Stomach uptake (KB tumor-bearing mice [5]; 2 h p.i., i.v., n = 3): 3.65 ± 0.75 %ID/g | Thyroid uptake (KB tumor-bearing mice [5]; 2 h p.i., i.v., n = 3): 0.06 ± 0.01 %ID | Tumor uptake (KB tumor-bearing mice [5]; 0.5 h p.i., i.v., n = 3): 4.18 ± 0.36 %ID/g | Tumor uptake (KB tumor-bearing mice [5]; [8]): 1.62 ± 0.08 %ID/g | Tumor uptake (KB tumor-bearing mice [5]; 2 h p.i., i.v., n = 3): 2.53 ± 0.12 %ID/g | RCP after incubation [6]: more than 95%
Structure (SMILES): [99Tc+].[C-]#[N+]CCOCCOCCOCCOCCC(=O)NCCNC(=O)CC[C@H](NC(=O)c1ccc(NCc2cnc3nc(N)[nH]c(=O)c3n2)cc1)C(=O)O.[C-]#[N+]CCOCCOCCOCCOCCC(=O)NCCNC(=O)CC[C@H](NC(=O)c1ccc(NCc2cnc3nc(N)[nH]c(=O)c3n2)cc1)C(=O)O.[C-]#[N+]CCOCCOCCOCCOCCC(=O)NCCNC(=O)CC[C@H](NC(=O)c1ccc(NCc2cnc3nc(N)[nH]c(=O)c3n2)cc1)C(=O)O.[C-]#[N+]CCOCCOCCOCCOCCC(=O)NCCNC(=O)CC[C@H](NC(=O)c1ccc(NCc2cnc3nc(N)[nH]c(=O)c3n2)cc1)C(=O)O.[C-]#[N+]CCOCCOCCOCCOCCC(=O)NCCNC(=O)CC[C@H](NC(=O)c1ccc(NCc2cnc3nc(N)[nH]c(=O)c3n2)cc1)C(=O)O.[C-]#[N+]CCOCCOCCOCCOCCC(=O)NCCNC(=O)CC[C@H](NC(=O)c1ccc(NCc2cnc3nc(N)[nH]c(=O)c3n2)cc1)C(=O)O [[^99mTc]Tc-CNPFA]
Visualization of tumor lesions by SPECT/CT (KB tumor-bearing mice [2]): clearly visualized

Solubility of ligand [7]: poor | Liver uptake (KB tumor-bearing mice [5]; 2 h p.i., labeled under weak acid condition (before the pH was changed to weakly alkaline)): 52.35 ± 1.19 %ID/g
Structure (SMILES): [C-]#[N+]CCCCCC(=O)NCCNC(=O)CC[C@H](NC(=O)c1ccc(NCc2cnc3nc(N)[nH]c(=O)c3n2)cc1)C(=O)O [CN5FA, N^2-(4-(((2-Amino-4-oxo-3,4-dihydropteridin-6-yl)methyl)amino)benzoyl)-N^5-(2-(6-isocyanohexanamido)ethyl)-L-glutamine]
